Species on record: Rattus norvegicus
Experiment: Open TG-GATES - Regimen: Single
Type: toxicity, organism-based, Sprague-Dawley
Design: regimen Single, gender Male, age 6 weeks
Conditions: in vivo, po, 0 mg/kg, route gavage, dose level Control; for APTT / Bas / Eos / Fbg / Hb / Ht / Lym / MCH / MCHC / MCV / Mono / Neu / PT / Plat / RBC / Ret / WBC: tissue Blood; for KIDNEY_L / KIDNEY_R / KIDNEY_TOTAL: tissue Kidney; for LIVER: tissue Liver; for A/G / ALP / ALT / AST / BUN / CRE / Ca / Cl / DBIL / GLC / IP / K / LDH / Na / PL / RALB / TBIL / TC / TG / TP / gamma-GTP: tissue Plasma

In the case of `CC(=O)Nc1ccc2c(c1)Cc1ccccc1-2` [2-ACETYLAMINOFLUORENE], the TERMINAL_BW (3 h) is reported as 224.8 g, the APTT (3 h) is reported as 20.9 s and the Bas (3 h) is reported as 0%. The Eos (3 h) was 1%, the Fbg (3 h) was 222.8 mg/dL and the Hb (3 h) was 13.6 g/dL. It also gave a Ht (3 h) of 39.5%, a Lym (3 h) of 76.8% and an MCH (3 h) of 21.5 pg. For the same compound, the MCHC (3 h) was 34.5%, the MCV (3 h) was 62.4 fL and the Mono (3 h) was 2.4%. It also gave a Neu (3 h) of 18.4%, a PT (3 h) of 11.9 s and a Plat (3 h) of 128.1 x10_4/uL. The RBC (3 h) was 632.6 x10_4/ul, the Ret (3 h) was 7.4% and the WBC (3 h) was 87.7 x10_2/uL. The KIDNEY_L (3 h) was 1 g, the KIDNEY_R (3 h) was 1 g and the KIDNEY_TOTAL (3 h) was 2 g. For the same compound, the LIVER (3 h) was 10.3 g, the A/G (3 h) was 1.7 and the ALP (3 h) was 1018.4 IU/L. The ALT (3 h) was 36.6 IU/L, the AST (3 h) was 77.4 IU/L and the BUN (3 h) was 10.8 mg/dL. It also gave a CRE (3 h) of 0.4 mg/dL, a Ca (3 h) of 10.5 mg/dL and a Cl (3 h) of 103.2 meq/L. The DBIL (3 h) was 0.072 mg/dL, the GLC (3 h) was 194.8 mg/dL and the IP (3 h) was 9.7 mg/dL. For the same compound, the K (3 h) was 4 meq/L, the LDH (3 h) was 161.8 IU/L and the Na (3 h) was 141 meq/L. For the same compound, the PL (3 h) was 141.6 mg/dL, the RALB (3 h) was 3.4 g/dL and the TBIL (3 h) was 0.1 mg/dL. For the same compound, the TC (3 h) was 77.8 mg/dL, the TG (3 h) was 61.6 mg/dL and the TP (3 h) was 5.5 g/dL. For the same compound, the gamma-GTP (3 h) was 0.8 IU/L, the TERMINAL_BW (6 h) was 219.6 g and the APTT (6 h) was 20.9 s. For the same compound, the Bas (6 h) was 0.6%, the Eos (6 h) was 0.6% and the Fbg (6 h) was 225.4 mg/dL. For the same compound, the Hb (6 h) was 14.2 g/dL, the Ht (6 h) was 40.9% and the Lym (6 h) was 78.2%. It also gave an MCH (6 h) of 21.8 pg, an MCHC (6 h) of 34.6% and an MCV (6 h) of 63.1 fL. The Mono (6 h) was 2.8%, the Neu (6 h) was 16.8% and the PT (6 h) was 12.2 s. It also gave a Plat (6 h) of 131.8 x10_4/uL, an RBC (6 h) of 649.8 x10_4/ul and a Ret (6 h) of 6.9%. For the same compound, the WBC (6 h) was 108.9 x10_2/uL, the KIDNEY_L (6 h) was 1 g and the KIDNEY_R (6 h) was 1 g. The KIDNEY_TOTAL (6 h) was 2 g, the LIVER (6 h) was 9.3 g and the A/G (6 h) was 1.7. It also gave an ALP (6 h) of 956.2 IU/L, an ALT (6 h) of 32.4 IU/L and an AST (6 h) of 70.4 IU/L. The BUN (6 h) was 9.6 mg/dL, the CRE (6 h) was 0.4 mg/dL and the Ca (6 h) was 10.5 mg/dL. For the same compound, the Cl (6 h) was 101.4 meq/L, the DBIL (6 h) was 0.076 mg/dL and the GLC (6 h) was 196 mg/dL. It also gave an IP (6 h) of 9.7 mg/dL, a K (6 h) of 4.2 meq/L and an LDH (6 h) of 166.6 IU/L. It also gave a Na (6 h) of 140.4 meq/L, a PL (6 h) of 139 mg/dL and an RALB (6 h) of 3.4 g/dL. For the same compound, the TBIL (6 h) was 0.1 mg/dL, the TC (6 h) was 72.2 mg/dL and the TG (6 h) was 89.8 mg/dL. The TP (6 h) was 5.4 g/dL, the gamma-GTP (6 h) was 1.2 IU/L and the TERMINAL_BW (9 h) was 217 g. The APTT (9 h) was 17.7 s, the Bas (9 h) was 0.8% and the Eos (9 h) was 0.8%. It also gave a Fbg (9 h) of 241.4 mg/dL, a Hb (9 h) of 13.9 g/dL and a Ht (9 h) of 40.5%. The Lym (9 h) was 75.2%, the MCH (9 h) was 21.8 pg and the MCHC (9 h) was 34.3%. It also gave an MCV (9 h) of 63.4 fL, a Mono (9 h) of 2.8% and a Neu (9 h) of 19.4%. It also gave a PT (9 h) of 12 s, a Plat (9 h) of 124 x10_4/uL and an RBC (9 h) of 639.4 x10_4/ul. The Ret (9 h) was 6.7%, the WBC (9 h) was 86.2 x10_2/uL and the KIDNEY_L (9 h) was 1 g. It also gave a KIDNEY_R (9 h) of 1 g, a KIDNEY_TOTAL (9 h) of 1.9 g and an LIVER (9 h) of 9.2 g. The A/G (9 h) was 1.5, the ALP (9 h) was 861.2 IU/L and the ALT (9 h) was 32.4 IU/L. It also gave an AST (9 h) of 67.8 IU/L, a BUN (9 h) of 11.2 mg/dL and a CRE (9 h) of 0.4 mg/dL. It also gave a Ca (9 h) of 10.6 mg/dL, a Cl (9 h) of 104 meq/L and a DBIL (9 h) of 0.06 mg/dL. It also gave a GLC (9 h) of 210.4 mg/dL, an IP (9 h) of 9 mg/dL and a K (9 h) of 3.7 meq/L. It also gave an LDH (9 h) of 239.6 IU/L, a Na (9 h) of 141 meq/L and a PL (9 h) of 134.8 mg/dL. It also gave an RALB (9 h) of 3.5 g/dL, a TBIL (9 h) of 0.1 mg/dL and a TC (9 h) of 73.6 mg/dL. The TG (9 h) was 49.2 mg/dL, the TP (9 h) was 5.7 g/dL and the gamma-GTP (9 h) was 1 IU/L. The TERMINAL_BW (24 h) was 237.9 g, the APTT (24 h) was 20.8 s and the Bas (24 h) was 0.2%. The Eos (24 h) was 0.8%, the Fbg (24 h) was 217.2 mg/dL and the Hb (24 h) was 13.8 g/dL. The Ht (24 h) was 40.1%, the Lym (24 h) was 82% and the MCH (24 h) was 22.5 pg. The MCHC (24 h) was 34.3%, the MCV (24 h) was 65.4 fL and the Mono (24 h) was 3%. For the same compound, the Neu (24 h) was 13.2%, the PT (24 h) was 11.9 s and the Plat (24 h) was 121.3 x10_4/uL. The RBC (24 h) was 612 x10_4/ul, the Ret (24 h) was 6.8% and the WBC (24 h) was 101.1 x10_2/uL. It also gave a KIDNEY_L (24 h) of 1.1 g, a KIDNEY_R (24 h) of 1.1 g and a KIDNEY_TOTAL (24 h) of 2.1 g. It also gave an LIVER (24 h) of 11.4 g, an A/G (24 h) of 1.7 and an ALP (24 h) of 1055.8 IU/L. For the same compound, the ALT (24 h) was 40 IU/L, the AST (24 h) was 69.4 IU/L and the BUN (24 h) was 14.8 mg/dL. The CRE (24 h) was 0.4 mg/dL, the Ca (24 h) was 10.8 mg/dL and the Cl (24 h) was 103.8 meq/L. The DBIL (24 h) was 0.09 mg/dL, the GLC (24 h) was 214.6 mg/dL and the IP (24 h) was 8.3 mg/dL. The K (24 h) was 3.9 meq/L, the LDH (24 h) was 192.8 IU/L and the Na (24 h) was 140.4 meq/L. It also gave a PL (24 h) of 132.2 mg/dL, an RALB (24 h) of 3.4 g/dL and a TBIL (24 h) of 0.2 mg/dL. For the same compound, the TC (24 h) was 64.2 mg/dL, the TG (24 h) was 95.8 mg/dL and the TP (24 h) was 5.4 g/dL. The gamma-GTP (24 h) was 1.2 IU/L.

Source: ChEMBL document CHEMBL3885861, “Open TG-GATES”
